This is an account of results in patent US9394264B2 (Receptos, Inc., priority 2009, dated 2016).

Where only a bound is given, the exact number is not on record here.

The target in the assay is S1P1/EDG1 (Homo sapiens, UniProt P21453). Kind of assay: S1P1 CRE-bla CHOK1 reporter assay (inhibition of Forskolin induced cAMP). Type of assay: cell-based. As to conditions: agonist activity range, S1P1 CRE-bla CHOK1 cells, 2 μM Forskolin; read-out: S1P1 ACTIVITY
Sequence of S1P1/EDG1 (P21453 whole entry): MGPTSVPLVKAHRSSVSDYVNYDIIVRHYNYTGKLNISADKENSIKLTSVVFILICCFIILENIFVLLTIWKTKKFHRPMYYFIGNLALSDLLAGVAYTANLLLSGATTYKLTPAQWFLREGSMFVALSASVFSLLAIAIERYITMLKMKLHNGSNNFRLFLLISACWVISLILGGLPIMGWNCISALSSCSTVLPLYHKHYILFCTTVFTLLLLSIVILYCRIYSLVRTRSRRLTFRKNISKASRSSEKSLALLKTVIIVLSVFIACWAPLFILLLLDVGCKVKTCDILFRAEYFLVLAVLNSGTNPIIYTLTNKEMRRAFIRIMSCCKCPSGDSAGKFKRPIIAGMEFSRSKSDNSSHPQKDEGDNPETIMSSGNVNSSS
An excerpt:
A mammalian expression plasmid containing S1P1/EDG1 cloned into pcDNA3.1 was purchased from Missouri S&T cDNA Resource Centre. The nucleotide and amino acid sequence of human S1P1/EDG1 are published in Hla and Maciag (J Biol Chem, 265(1990), 9308-9313). S1P1/pcDNA3.1 was transfected into the CRE-bla CHO K1 (Invitrogen) cell line, and stable single cell clones were selected using standard techniques. Expression of functional S1P1/EDG1 receptor was confirmed by cell surface FACS with a S1P1 antibody (R&D Systems, clone 218713) and S1P-mediated inhibition of Forskolin induced cAMP.
Cells were seeded into 384-well black wall/clear bottom plates at 10^4 cells/well/19.5 μl assay media (DMEM-phenol free, 0.5% charcoal/dextran stripped serum, 2 mM glutamine, 0.1 mM NEAA, 1 mM Na-Pyruvate, 25 mM Hepes) and incubated for 18 hrs at 37° C. in 5% CO2. Dose response curves (10-point) were generated in 10 mM Hepes, 0.1% Pluronic F127, in the presence of Forskolin. Cells were treated with 0.5 μl compound in the presence of 2 μM Forskolin for 4 hrs at 37° C. The FRET-based β-lactamase fluorescent substrate (LiveBLAzer™-FRET B/G Loading Kit CC4-AM; Invitrogen) was prepared according to manufacturer's directions, and incubated with cells for 2 hrs at room temperature. Plates were read at Ex:410/Em:458 and Ex:410/Em:522, and the response ratio determined. Data was analyzed by non-linear regression to determine the EC50 for inhibition of Forskolin induced cAMP.
Background: In a reporter assay the amount or activity of a reporter protein is the signal.
`CC(C)Oc1ccc(-c2nc(-c3cccc4c3CCC[C@H]4O)no2)cc1C#N` [Compound 1, (R)-5-(3-(5-hydroxy-5,6,7,8-tetrahydronaphthalen-1-yl)-1,2,4-oxadiazol-5-yl)-2-isopropoxybenzonitrile]: the EC50 is 0.05 to 0.5 nM. To `CC(C)Oc1ccc(-c2nc(-c3cccc4c3CCC[C@@H]4O)no2)cc1C#N` [Compound 2, (S)-5-(3-(5-hydroxy-5,6,7,8-tetrahydronaphthalen-1-yl)-1,2,4-oxadiazol-5-yl)-2-isopropoxybenzonitrile] belongs under 0.05 nM. To `CC(C)Oc1ccc(-c2nc(-c3cccc4c3CCC[C@H]4N)no2)cc1C#N` [Compound 3, (R)-5-(3-(5-amino-5,6,7,8-tetrahydronaphthalen-1-yl)-1,2,4-oxadiazol-5-yl)-2-isopropoxybenzonitrile] belongs 0.5 to 5 nM. Under `CC(C)Oc1ccc(-c2nc(-c3cccc4c3CCC[C@@H]4N)no2)cc1C#N` [Compound 4, (S)-5-(3-(5-amino-5,6,7,8-tetrahydronaphthalen-1-yl)-1,2,4-oxadiazol-5-yl)-2-isopropoxybenzonitrile] stands 0.05 to 0.5 nM. Take `CC(C)Oc1ccc(-c2nc(-c3cccc4c3CCC[C@H]4NC(=O)N(C)C)no2)cc1C#N` [Compound 5]: the EC50 was 0.05 to 0.5 nM. On to `CC(C)Oc1ccc(-c2nc(-c3cccc4c3CCC[C@@H]4NC(=O)N(C)C)no2)cc1C#N` [Compound 6], for which the EC50 fell in the range of 0.05 to 0.5 nM. To `CC(C)Oc1ccc(-c2nc(-c3cccc4c3CCC[C@H]4NC(=O)N3CC(O)C3)no2)cc1C#N` [Compound 7, (R)-N-(5-(5-(3-cyano-4-isopropoxyphenyl)-1,2,4-oxadiazol-3-yl)-1,2,3,4-tetrahydronaphthalen-1-yl)-3-hydroxyazetidine-1-carboxamide] belongs 0.05 to 0.5 nM. Under `CC(C)Oc1ccc(-c2nc(-c3cccc4c3CCC[C@@H]4NC(=O)N3CC(C(=O)O)C3)no2)cc1C#N` [Compound 9] stands 0.05 to 0.5 nM; under `CC(C)Oc1ccc(-c2nc(-c3cccc4c3CCC[C@H]4NC(=O)N3CC(C(=O)O)C3)no2)cc1C#N` [Compound 10], 0.05 to 0.5 nM.

`CC(C)Oc1ccc(-c2nc(-c3cccc4c3CCC[C@H]4NC(=O)N3CCCC3)no2)cc1C#N` [Compound 11]: the EC50 lay within 0.05 to 0.5 nM. Under `CC(C)Oc1ccc(-c2nc(-c3cccc4c3CCC[C@@H]4NC(=O)N3CCCC3)no2)cc1C#N` [Compound 12, (S)-N-(5-(5-(3-cyano-4-isopropoxyphenyl)-1,2,4-oxadiazol-3-yl)-1,2,3,4-tetrahydronaphthalen-1-yl)pyrrolidine-1-carboxamide] stands 0.05 to 0.5 nM. `CC(C)Oc1ccc(-c2nc(-c3cccc4c3CCC[C@@H]4NC(=O)N3CC[C@H](O)C3)no2)cc1C#N` [Compound 14]: the EC50 lay within 0.05 to 0.5 nM. In the case of `CC(C)Oc1ccc(-c2nc(-c3cccc4c3CCC[C@@H]4NC(=O)N3CCOCC3)no2)cc1C#N` [Compound 15, (S)-N-(5-(5-(3-cyano-4-isopropoxyphenyl)-1,2,4-oxadiazol-3-yl)-1,2,3,4-tetrahydronaphthalen-1-yl)morpholine-4-carboxamide], the EC50 is 0.05 to 0.5 nM. Under `CC(C)Oc1ccc(-c2nc(-c3cccc4c3CCC[C@H]4NC(=O)N3CCOCC3)no2)cc1C#N` [Compound 16] stands 0.5 to 5 nM; under `CC(C)Oc1ccc(-c2nc(-c3cccc4c3CCC[C@@H]4NC(=O)N3CCC[C@H](O)C3)no2)cc1C#N` [Compound 17], 0.5 to 5 nM. To `CC(C)Oc1ccc(-c2nc(-c3cccc4c3CCC[C@H]4NC(=O)N3CCC[C@H](O)C3)no2)cc1C#N` [Compound 18] belongs 0.5 to 5 nM. `CC(C)Oc1ccc(-c2nc(-c3cccc4c3CCC[C@H]4NC(=O)N3CCC(O)CC3)no2)cc1C#N` [Compound 19]: the EC50 is 0.5 to 5 nM.

`CC(C)Oc1ccc(-c2nc(-c3cccc4c3CCC[C@H]4NC(=O)N3CC[C@@H](N(C)C)C3)no2)cc1C#N` [Compound 20, (R)-N-((R)-5-(5-(3-cyano-4-isopropoxyphenyl)-1,2,4-oxadiazol-3-yl)-1,2,3,4-tetrahydronaphthalen-1-yl)-3-(dimethylamino)pyrrolidine-1-carboxamide]: the EC50 is 0.5 to 5 nM.

Take `CC(=O)N[C@@H]1CCCc2c(-c3noc(-c4ccc(OC(C)C)c(C#N)c4)n3)cccc21` [Compound 21, (R)-N-(5-(5-(3-cyano-4-isopropoxyphenyl)-1,2,4-oxadiazol-3-yl)-1,2,3,4-tetrahydronaphthalen-1-yl)acetamide]: the EC50 was 0.05 to 0.5 nM.

For the molecule `CC(=O)N[C@H]1CCCc2c(-c3noc(-c4ccc(OC(C)C)c(C#N)c4)n3)cccc21` [Compound 22, (S)-N-(5-(5-(3-cyano-4-isopropoxyphenyl)-1,2,4-oxadiazol-3-yl)-1,2,3,4-tetrahydronaphthalen-1-yl)acetamide], the EC50 was 0.05 to 0.5 nM.

`COCC(=O)N[C@@H]1CCCc2c(-c3noc(-c4ccc(OC(C)C)c(C#N)c4)n3)cccc21` [Compound 23]: the EC50 fell in the range of 0.5 to 5 nM. For `COCC(=O)N[C@H]1CCCc2c(-c3noc(-c4ccc(OC(C)C)c(C#N)c4)n3)cccc21` [Compound 24], the EC50 is 0.05 to 0.5 nM.

As to `CC(C)Oc1ccc(-c2nc(-c3cccc4c3CCC[C@H]4NC(=O)CN(C)C)no2)cc1C#N` [Compound 25], the EC50 lay in the range of 0.5 to 5 nM. Under `CC(C)Oc1ccc(-c2nc(-c3cccc4c3CCC[C@H]4NS(N)(=O)=O)no2)cc1C#N` [Compound 26, (R)-N-(5-(5-(3-cyano-4-isopropoxyphenyl)-1,2,4-oxadiazol-3-yl)-1,2,3,4-tetrahydronaphthalen-1-yl)sulfamide] stands 0.05 to 0.5 nM.

For the molecule `CC(C)Oc1ccc(-c2nc(-c3cccc4c3CCC[C@@H]4NS(N)(=O)=O)no2)cc1C#N` [Compound 27, (S)-N-(5-(5-(3-cyano-4-isopropoxyphenyl)-1,2,4-oxadiazol-3-yl)-1,2,3,4-tetrahydronaphthalen-1-yl)sulfamide], the EC50 was under 0.05 nM. To `CC(C)Oc1ccc(-c2nc(-c3cccc4c3CCC[C@H]4NS(C)(=O)=O)no2)cc1C#N` [Compound 28, (R)-N-(5-(5-(3-cyano-4-isopropoxyphenyl)-1,2,4-oxadiazol-3-yl)-1,2,3,4-tetrahydronaphthalen-1-yl)methanesulfonamide] belongs 0.05 to 0.5 nM; to `CC(C)Oc1ccc(-c2nc(-c3cccc4c3CCC[C@H]4NS(=O)(=O)C3CC3)no2)cc1C#N` [Compound 30], 0.05 to 0.5 nM. To `CC(C)Oc1ccc(-c2nc(-c3cccc4c3CCC[C@@H]4NS(=O)(=O)C3CC3)no2)cc1C#N` [Compound 31] belongs 0.5 to 5 nM; to `COCCS(=O)(=O)N[C@@H]1CCCc2c(-c3noc(-c4ccc(OC(C)C)c(C#N)c4)n3)cccc21` [Compound 32, (R)-N-(5-(5-(3-cyano-4-isopropoxyphenyl)-1,2,4-oxadiazol-3-yl)-1,2,3,4-tetrahydronaphthalen-1-yl)-2-methoxyethanesulfonamide], 0.05 to 0.5 nM; to `CC(C)Oc1ccc(-c2nc(-c3cccc4c3CCC[C@H]4NS(=O)(=O)CC(=O)O)no2)cc1C#N` [Compound 34, (R)-2-(N-(5-(5-(3-cyano-4-isopropoxyphenyl)-1,2,4-oxadiazol-3-yl)-1,2,3,4-tetrahydronaphthalen-1-yl)sulfamoyl)acetic acid], under 0.05 nM. Under `CC(C)Oc1ccc(-c2nc(-c3cccc4c3CCC[C@@H]4NS(=O)(=O)CC(=O)O)no2)cc1C#N` [Compound 35, (S)-2-(N-(5-(5-(3-cyano-4-isopropoxyphenyl)-1,2,4-oxadiazol-3-yl)-1,2,3,4-tetrahydronaphthalen-1-yl)sulfamoyl)acetic acid] stands under 0.05 nM; under `CC(C)Oc1ccc(-c2nc(-c3cccc4c3CCC[C@@H]4NS(=O)(=O)CCO)no2)cc1C#N` [Compound 36, (S)-N-(5-(5-(3-cyano-4-isopropoxyphenyl)-1,2,4-oxadiazol-3-yl)-1,2,3,4-tetrahydronaphthalen-1-yl)-2-hydroxyethanesulfonamide], under 0.05 nM. In the case of `CC(C)Oc1ccc(-c2nc(-c3cccc4c3CCC[C@@H]4NS(=O)(=O)CC(N)=O)no2)cc1C#N` [Compound 38], the EC50 was under 0.05 nM. Under `CC(C)Oc1ccc(-c2nc(-c3cccc4c3CCC[C@H]4NS(=O)(=O)CC(N)=O)no2)cc1C#N` [Compound 39] stands under 0.05 nM.

As to `CC(C)Oc1ccc(-c2nc(-c3cccc4c3CCC[C@H]4NS(=O)(=O)CC(=O)N(C)C)no2)cc1C#N` [Compound 40, (R)-2-(N-(5-(5-(3-cyano-4-isopropoxyphenyl)-1,2,4-oxadiazol-3-yl)-1,2,3,4-tetrahydronaphthalen-1-yl)sulfamoyl)-N,N-dimethylacetamide], the EC50 is under 0.05 nM. Under `CC(C)Oc1ccc(-c2nc(-c3cccc4c3CCC[C@@H]4NS(=O)(=O)CC(=O)N(C)C)no2)cc1C#N` [Compound 41, (S)-2-(N-(5-(5-(3-cyano-4-isopropoxyphenyl)-1,2,4-oxadiazol-3-yl)-1,2,3,4-tetrahydronaphthalen-1-yl)sulfamoyl)-N,N-dimethylacetamide] stands under 0.05 nM; under `CC(C)Oc1ccc(-c2nc(-c3cccc4c3CCC[C@@H]4NS(=O)(=O)CC(=O)N3CCC3)no2)cc1C#N` [Compound 42], under 0.05 nM.
